Assay results reported in patent publication US7741484B2, “Process for synthesis of phenoxy diaminopyrimidine derivatives” (Roche Palo Alto LLC, priority 2005, dated 2010).

Target: T1, rat P2X3 receptor (Rattus norvegicus, UniProt P49654)
T1 construct: expressed in transfected cells; host or cells: CHO-K1
T1 sequence (P49654 1-397): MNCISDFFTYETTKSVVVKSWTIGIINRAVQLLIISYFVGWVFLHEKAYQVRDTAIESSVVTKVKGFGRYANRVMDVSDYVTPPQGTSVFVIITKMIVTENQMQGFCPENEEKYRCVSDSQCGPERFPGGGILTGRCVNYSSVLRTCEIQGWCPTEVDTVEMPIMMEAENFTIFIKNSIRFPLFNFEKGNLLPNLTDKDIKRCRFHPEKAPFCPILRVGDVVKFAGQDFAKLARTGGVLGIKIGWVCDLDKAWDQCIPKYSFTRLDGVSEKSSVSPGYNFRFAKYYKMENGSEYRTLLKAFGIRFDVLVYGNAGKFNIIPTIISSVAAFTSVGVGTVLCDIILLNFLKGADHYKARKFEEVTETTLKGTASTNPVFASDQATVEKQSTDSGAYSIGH
Assay: P2X3 FLIPR (Fluorometric Imaging Plate Reader) assay, inhibition of α,β-meATP-evoked calcium fluorescence
Format: cell-based
Settings: CHO-K1 cells transfected with cloned rat P2X3; agonist α,β-meATP 1 μM; Fluo-3 AM; read-out: pIC50 for the P2X3 receptor (converted)
Procedure: CHO-K1 cells were transfected with cloned rat P2X3 or human P2X2/3 receptor subunits and passaged in flasks. 18-24 hours before the FLIPR experiment, cells were released from their flasks, centrifuged, and resuspended in nutrient medium at 2.5×10^5 cells/ml. The cells were aliquoted into black-walled 96-well plates at a density of 50,000 cells/well and incubated overnight in 5% CO2 at 37° C. On the day of the experiment, cells were washed in FLIPR buffer (calcium- and magnesium-free Hank's balanced salt solution, 10 mM HEPES, 2 mM CaCl2, 2.5 mM probenecid; FB). Each well received 100 μl FB and 100 μl of the fluorescent dye Fluo-3 AM [2 μM final conc.]. […]
Test compounds (dissolved in DMSO at 10 mM and serially diluted with FB) or vehicle were added to each well (25 μl of a 4× solution) and allowed to equilibrate for 20 minutes at room temperature. The plates were then placed in the FLIPR and a baseline fluorescence measurement (excitation at 488 nm and emission at 510-570 nm) was obtained for 10 seconds before a 100 μl/well agonist or vehicle addition. […] Fluorescence was measured for an additional 2 minutes at 1 second intervals after agonist addition. A final addition of ionomycin (5 μM, final concentration) was made to each well of the FLIPR test plate to establish cell viability and maximum fluorescence of dye-bound cytosolic calcium. […]

IC50: ~10 nM
SMILES: COc1cc(C(C)C)c(Oc2cnc(N)nc2N)cc1I [5-(5-Iodo-2-isopropyl-4-methoxy-phenoxy)-pyrimidine-2,4-diamine]
